Assay results reported in publication PMC9348551, “An amelogenin-based peptide hydrogel promoted the odontogenic differentiation of human dental pulp cells” (Regenerative Biomaterials, 2022).
Square brackets hold non-standard residues; d marks the D form. Ends that are not written are not given here. Peptide text beside a SMILES is read from it. * marks the point of attachment. Acetyl(2-naphthyl) = O=C(Cc1ccc2ccccc2c1)*

Tests used:
[1] = Proteinase K stability (compound remaining); type: in vitro ADME; details: Tritirachium album (source organism of proteinase K); initial concentration 1.0 mM, 0.1 mg/ml proteinase K, 24 h; read-out: compound remaining after 24 h
Description: (§1) Both Nap-GFFY-G-KWYQNMIR (Comp. 1) and Nap-G^DF^DF^DY-G-KWYQNMIR (Comp. 2) could form hydrogels by heating and cooling, namely L-gel and D-gel (Fig. 1A–C). The ultrastructures of the L-gel and D-gel were both nanofibers (Fig. 1D and E). The mechanical properties of the L-gel and D-gel remained relatively constant (Fig. 1F and G). […] The CAC values of the AMG-P8, L-gel and D-gel were 354.91, 84.25 and 86.62 μM, respectively (Fig. 1I and J). […] That was the result of an initial concentration of 1.0 mM AMG-P8 incubated with 0.1 mg/ml of proteinase K for 24 h, whereas the L-gel and D-gel still retained 62.21% and 78.06% of the compound, respectively, after 24 h (Fig. 1K).
(§2) Figure 1. Chemical structures of (A) AMG-P8 (KWYQNMIR); (B) Comp.1 (Nap-GFFYGKWYQNMIR) and (C) Comp.2 (Nap-G^DF^DF^DYGKWYQNMIR). TEM and optical images of (D) L-gel and (E) D-gel. Dynamic frequency and strain sweep measurements of L-gel and D-gel (F, G). (H) Circular dichroism spectra of L-gel and D-gel. Determination of CAC values of L-gel (I) and D-gel (J). (K) Compound remaining of the AMG-P8, L-gel and D-gel for an initial concentration of 1.0 mM incubated with 0.1 mg/ml of proteinase K for 24 h. TEXT PRINTED IN THE PICTURE: (I) L- gel: CAC=84.25 μM | (J) D- gel: CAC=86.62 μM DOUBTS OF THE COPYIST ABOUT THIS PICTURE: L- gel, CAC: small print, 84.25 could be 84.26 or 64.25 / D- gel, CAC: small print, 86.62 could be 88.62 or 86.82

[2] = system: human dental pulp cells (HDPCs); type: cell-based
Description: The HDPCs (1 × 10^5 cells/well) in the six well plates were treated with basal medium, AMG-P8, L-gel, D-gel, EMPs for 21 days. After fixed in the 4% paraformaldehyde for 15 min, the mineralized nodules were stained with 1% Alizarin Red (Solarbio, Beijing, China) for 10 min and washed in double-distilled water to eliminate floating colors. Images were captured with a Ti-S microscope (Nikon, Japan). For quantitative analysis of calcified nodules, 10% cetylpyridinium chloride (CPC; Sigma, USA) was used to dissolve Alizarin red. One milliliter of 10% CPC per well was added and shook for 30 min. The absorbance value was measured at 560 nm using a multifunctional microplate reader (Tecan Ltd., Männedorf, Switzerland).

[3] = system: human dental pulp cells (HDPCs); experiment: Western blot of DSPP, DMP-1 and ALP in HDPCs; type: cell-based; details: D-gel and U0126 for 7 and 14 days, P < 0.05, in words
Description: The healthy premolars and third molars extracted for orthodontic or other reasons were collected from patients (14–22 years old) visited Tianjin Stomatological Hospital. This study had been approved by the Ethics Committee of Tianjin Stomatological Hospital (Approval number: 2018012). The informed consent was obtained from each patient. The dental pulp tissue was dissected within 4 h after tooth extraction, minced into 1 mm^3 pieces with sterile scissors and transferred to a cell culture flask containing alpha-modified Eagle’s medium (α-MEM, Gibco, California, USA) supplemented with 10% fetal bovine serum (FBS, Gibco, New York, NY, USA), 100 U/ml penicillin and 100 μg/ml streptomycin (PS, Sigma, California, USA). The cells were cultured in a 5% CO2 incubator at 37°C. The HDPCs at 3–4 passage were used in this study.
The HDPCs (2 × 10^5) were treated under different conditions for different time points. The EMPs (1 µM) were also added to the HDPCs as an extra control group. Then the cells were harvested and lysed in 200 µL lysis buffer (Beyotime, Shanghai, China) and centrifuged (12 000 rpm for 10 min, at 4°C). The protein concentration was evaluated with a BCA kit (Solarbio, Beijing, China). The protein was mixed with 5× loading buffer and heated at 95°C for 5 min, separated by precast PAGE gel (Beyotime, Shanghai, China) and transferred to polyvinylidene fluoride membranes. […]

[4] = system: MAPK-ERK1/2 pathways in HDPCs; experiment: Western blot of phospho-ERK1/2 in HDPCs; type: cell-based, human; details: 10 µM inhibitor pretreatment 1 h then D-gel 1 h, P < 0.05, in words
Description: The HDPCs (2 × 10^5) were treated under different conditions for different time points. The EMPs (1 µM) were also added to the HDPCs as an extra control group. Then the cells were harvested and lysed in 200 µL lysis buffer (Beyotime, Shanghai, China) and centrifuged (12 000 rpm for 10 min, at 4°C). The protein concentration was evaluated with a BCA kit (Solarbio, Beijing, China). The protein was mixed with 5× loading buffer and heated at 95°C for 5 min, separated by precast PAGE gel (Beyotime, Shanghai, China) and transferred to polyvinylidene fluoride membranes. After blocked at room temperature for 15 min, then incubated with the primary antibody (DSPP, DMP-1, Smad2/3, c jun, p-c jun, c fos, p-c fos, c jun B) (Santa Cruz, California, USA), [p-ERK1/2, ERK1/2, alkaline phosphatase (ALP), p-Smad2/3, GAPDH] (Beyotime, Shanghai, China). Then, the membranes were incubated with the goat anti-rabbit IgG-HRP secondary antibody or goat anti-mouse IgG-HRP secondary antibody for 1 h, respectively. Then, an ultrasensitive chemiluminescence kit (Beyotime, Shanghai, China) was used to detect the protein bands. A chemiluminescence imager (Bio-Rad, California, USA) was used to scan the protein bands. The Image Lab software was used to analyze the relative protein expression levels. […]

[5] = Solubility of the peptide; type: physicochemical; details: in words
[6] = target: proteinase K (Parengyodontium album, UniProt P06873); experiment: Proteinase K stability (compound remaining); type: in vitro ADME; details: initial concentration 1.0 mM, 0.1 mg/ml proteinase K
Description: as §1, §2

proteinase K, sequence (P06873 106-384, species assumed): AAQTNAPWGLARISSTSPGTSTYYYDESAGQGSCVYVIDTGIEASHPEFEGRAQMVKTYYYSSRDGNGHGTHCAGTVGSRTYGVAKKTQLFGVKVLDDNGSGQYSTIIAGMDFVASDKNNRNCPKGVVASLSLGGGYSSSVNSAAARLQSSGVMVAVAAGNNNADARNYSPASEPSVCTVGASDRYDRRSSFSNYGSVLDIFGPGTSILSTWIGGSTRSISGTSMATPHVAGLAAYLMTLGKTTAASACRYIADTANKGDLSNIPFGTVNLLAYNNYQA

CC[C@H](C)[C@H](NC(=O)[C@H](CCSC)NC(=O)[C@H](CC(N)=O)NC(=O)[C@H](CCC(N)=O)NC(=O)[C@H](Cc1ccc(O)cc1)NC(=O)[C@H](Cc1c[nH]c2ccccc12)NC(=O)[C@H](CCCCN)NC(=O)CNC(=O)[C@@H](Cc1ccc(O)cc1)NC(=O)[C@@H](Cc1ccccc1)NC(=O)[C@@H](Cc1ccccc1)NC(=O)CNC(=O)Cc1ccc2ccccc2c1)C(=O)N[C@@H](CCCNC(=N)N)C(=O)O [D-gel] ({Acetyl(2-naphthyl)}-G[dF][dF][dY]GKWYQNMIR-OH)
remaining at 24 h, 1 mM [1]: 78.1% | Alizarin red OD value as percent of the EMPs group [2]: about 80%

CC[C@H](C)[C@H](NC(=O)[C@H](CCSC)NC(=O)[C@H](CC(N)=O)NC(=O)[C@H](CCC(N)=O)NC(=O)[C@H](Cc1ccc(O)cc1)NC(=O)[C@H](Cc1c[nH]c2ccccc12)NC(=O)[C@H](CCCCN)NC(=O)CNC(=O)[C@H](Cc1ccc(O)cc1)NC(=O)[C@H](Cc1ccccc1)NC(=O)[C@H](Cc1ccccc1)NC(=O)CNC(=O)Cc1ccc2ccccc2c1)C(=O)N[C@@H](CCCNC(=N)N)C(=O)O [L-gel] ({Acetyl(2-naphthyl)}-GFFYGKWYQNMIR-OH)
remaining at 24 h, 1 mM [1]: 62.2%

N#CC(=C(/N)Sc1ccccc1N)/C(C#N)=C(/N)Sc1ccccc1N [U0126]
effect on D-gel-induced expression of DSPP and ALP [3]: suppressed | effect on D-gel-induced phospho-ERK1/2 upregulation [4]: specifically blocked

KWYQNMIR [AMG-P8]
solubility [5]: good solubility | time within which the peptide was hydrolyzed [6]: ≤ 30 min
